Results: patent publication US5814470A, “Melittin-related polypeptides, mixture sets and libraries thereof” (priority 1997, dated 1998)

Tests used:
[1] = Polypeptide conformation by CD spectroscopy (α-helix content); format: physicochemical; details: in the presence of 100 mM NaCl, 25° C.
Protocol: The library of sets of Example 1 was examined for the ability of each set to adopt an α-helical conformation. […] In the presence of 100 mM NaCl, the percent of α-helices varied from 20 to 40 percent.
All measurements were carried out on a Jasco J-720 circular dichroism spectropolarimeter (CD-Eaton, Md.), in conjunction with a Neslab RTE 110 waterbath and temperature controller at 25° C. (Dublin, Calif.). CD spectra were the average of a series of three to seven scans made at 0.2 nm intervals. Ellipticity was determined as means residue ellipticity, θ; the limits of error of measurements at 222 nm were ±500 (deg cm2 dmol^-1). For salt induced aggregation, stock solutions were separately prepared with 150 μM polypeptide sets in buffer (5 mM MOPS-NaOH, 100 mM NaCl).

[2] = test system: human red blood cells (RBCs); assay: Hemolytic activity (HD50); format: cell-based; details: one hour at 37° C., OD 414 nm
Protocol: The hemolytic activities of the polypeptide mixture sets were determined by using human red blood cells (RBCs). The cells were washed three times with phosphate-buffered saline (PBS/35 mM phosphate buffer--0.15M NaCl, pH 7.0) and resuspended in PBS. The hemolytic activity of the polypeptide sets were determined as described in Blondelle et al., Biochem. Biophys. Acta, 1202:331-336 (1993) using 96 well tissue culture plates. In brief, 100 μl of 0.5 percent RBC solution were added to an equal volume of peptides in PBS. The plates were incubated for one hour at 37° C. and the optical density (OD) of the supernatant was measured at 414 nm. The concentration in peptide necessary to lyse 50 percent RBCs (HD50) was then determined for each peptide using a sigmoidal curve fitting method (Graphpad).

[3] = test system: Staphylococcus aureus; details: no change in optical density over 18 hours; slightly different conditions; cited from earlier work

Melittin
percent of α-helices (helicity) [1]: about 20%
HD50 (concentration necessary to lyse 50 percent RBCs) [2]: 6 µg/mL
minimum inhibitory concentration (MIC) [3]: 25 µg/mL
